These results are taken from ChEMBL document CHEMBL5352435, “Recent two-year advances in anti-dengue small-molecule inhibitors” (Eur J Med Chem, 2022).

In general, IC50 refers to the midpoint of a concentration-inhibition curve. What is called EC50 is the concentration needed to bring the measured effect to its halfway point. One may read the CC50 as the concentration giving 50% cytotoxicity.

Series [1] concerns dengue virus type 2. In words: Antiviral activity against DENV2 New Guinea C infected in golden hamster BHK-21 cells assessed as inhibition of plaque formation incubated for 4 days by crystal violet staining based microscopy. Particulars: BHK-21, 96 h. The series is classed as functional, organism-based.
The test system of series [2] is dengue virus type 3. Put plainly: Antiviral activity against DENV3 H87 assessed as reduction in viral RNA copy number preincubated for 1 hrs followed by infection in Vero cells and measured after 4 days by qRT-PCR analysis. In kind it is functional, organism-based.
The subject of series [3] is dengue virus type 2. Put plainly: Antiviral activity against DENV2 New Guinea C infected in Huh-7 cells assessed as inhibition of virus induced cytopathic effect incubated for 3 to 7 days by Neutral red assay. The series is classed as functional, organism-based. (In general: Cytopathic effects are the visible damage that an infection or toxin causes in cultured cells.)

For series [4], the target named is T1, Genome polyprotein (dengue virus type 2, UniProt P29990). In words: Inhibition of DENV2 NS2B (48 to 100 residues)/NS3 (14 to 185 residues) protease expressed in Escherichia coli BL21 (DE3) using Bz-Nle-Lys-Arg-Arg-AMC as substrate preincubated for 30 mins followed by substrate addition by fluorescence assay.
Series [5] concerns dengue virus type 2. In words: Antiviral activity against DENV2 16681 infected in human Huh-7 cells assessed as inhibition of viral titer incubated for 24 hrs by focus-forming assay. The series is classed as functional, organism-based. Particulars: Dengue virus, 16681, Huh-7, 24 h.
A short description of series [6]: Cytotoxicity against human Huh-7 cells assessed as reduction in cell viability incubated for 24 hrs by PrestoBlue assay. The series is classed as toxicity, cell-based.
Series [7] deals with T1, Genome polyprotein. In words: Inhibition of DENV2 NS2B/NS3 protease using Boc-Gly-Arg-Arg-MCA as substrate preincubated for 10 mins followed by substrate addition and measured after 60 mins by fluorescence microplate reader assay.
Series [8] deals with dengue virus type 2. In words: Antiviral activity against DENV2 assessed as inhibition of viral replication. In kind it is functional, organism-based.
Series [9] concerns dengue virus type 2. Put plainly: Antiviral activity against DENV2 infected in mouse assessed as survival rate at 30 mg/kg,po. The series is classed as functional.
Another series concerns dengue virus type 1. In words: Antiviral activity against DENV1 assessed as inhibition of viral replication. In kind it is functional, organism-based.
For series [10], the system named is dengue virus type 4. Put plainly: Antiviral activity against DENV4 assessed as inhibition of viral replication. The series is classed as functional, organism-based.
Series [11] deals with dengue virus type 3. Put plainly: Antiviral activity against DENV3 assessed as inhibition of viral replication. In kind it is functional, organism-based.
A short description of series [12]: Cytotoxicity against human Huh-7 cells assessed as reduction in cell viability incubated for 48 hrs by AlamarBlue assay. The series is classed as toxicity, cell-based. On the technique in general: Resazurin is reduced to fluorescent resorufin, in cell work by metabolically active cells.
Series [13] relates to dengue virus type 2. In words: Antiviral activity against DENV2 New Guinea C expressing […] reporter plasmid infected in human Huh-7 cells assessed as inhibition of viral replication incubated for 48 hrs by nanoluciferase assay. In kind it is functional, organism-based. Particulars: Huh-7, 48 h.
In series [14] the test system is dengue virus type 2. Put plainly: Antiviral activity against DENV2 New Guinea C infected in golden hamster BHK-21 cells assessed as inhibition of plaque formation and measured after 22 hrs by crystal violet based plaque assay. In kind it is functional, organism-based. Particulars: BHK-21, 22 h.
In series [15] the test system is dengue virus type 2. In words: Antiviral activity against DENV2 infected in African green monkey Vero cells assessed as inhibition of viral titer preincubated for 16 hrs followed by viral infection and measured after 36 hrs by focus-forming assay. The series is classed as functional, organism-based.
In series [16] the test system is dengue virus type 2. In words: Antiviral activity against DENV2 Thailand/16681/1984 infected in golden hamster BHK-21 cells assessed as inhibition of virus induced cytopathic effect incubated for 4 to 5 days by microscopy. In kind it is functional, organism-based.
In series [17] the test system is dengue virus type 2. In words: Antiviral activity against DENV2 New Guinea C infected in monkey LLC-MK2 cells assessed as inhibition of plaque formation incubated for 72 hrs by plaque titration assay. The series is classed as functional, organism-based. Particulars: LLC-MK2, 72 h.
For series [18], the system named is dengue virus type 4. Put plainly: Antiviral activity against DENV4 infected in Huh-7 cells assessed as inhibition of virus induced cytopathic effect incubated for 72 hrs by Hoechst 33342 staining based immunofluorescence assay. In kind it is functional, organism-based. Particulars: Huh-7, 72 h.
The target in the next series is Nonstructural protein 3 (Zika virus, UniProt A0A024AXB9). In words: Inhibition of recombinant ZIKV NS2B-NS3 protease using Bz-Nle-K-K-R-AMC as substrate incubated for 1 hr by fluorescence-based microplate reader assay.

Structures are written as SMILES. *1 amine or outer side, *2 acyl side, *3 side chain or, on linkers, in order; H or OH if unused. Where a SMILES comes first, the peptide text is derived from it. Bridges are numbered along the chain shown (N, C = ends). [ ]: non-standard residue; d: D form. The star is where a group is joined. hTyr(3S-OH,4S-OH,3'-OSO3H) = N[C@H](C(=O)O)[C@H](O)[C@@H](O)c1ccc(O)c(OS(=O)(=O)O)c1; Orn(4R-OH,5R-OH) = O=C([C@H](C[C@@H](O)[C@@H](O)N[*:3])N[*:1])[*:2]; Pro(3S-OH,4S-Me) = C[C@H]1CN[C@H](C(=O)O)[C@H]1O; X1 = CCCCCOc1ccc(-c2cc(-c3ccc(C(=O)*)cc3)no2)cc1; Gln(3R-OH) = NC(=O)C[C@@H](O)[C@H](N)C(=O)O; Hyp = O=C(O)[C@@H]1C[C@@H](O)CN1

T1 sequence (P29990 1346-1475 limits assumed): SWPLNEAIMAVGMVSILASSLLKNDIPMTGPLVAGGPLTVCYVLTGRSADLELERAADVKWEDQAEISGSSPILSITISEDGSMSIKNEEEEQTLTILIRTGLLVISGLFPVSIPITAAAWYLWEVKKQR
T1 sequence (P29990 1476-2093 limits assumed): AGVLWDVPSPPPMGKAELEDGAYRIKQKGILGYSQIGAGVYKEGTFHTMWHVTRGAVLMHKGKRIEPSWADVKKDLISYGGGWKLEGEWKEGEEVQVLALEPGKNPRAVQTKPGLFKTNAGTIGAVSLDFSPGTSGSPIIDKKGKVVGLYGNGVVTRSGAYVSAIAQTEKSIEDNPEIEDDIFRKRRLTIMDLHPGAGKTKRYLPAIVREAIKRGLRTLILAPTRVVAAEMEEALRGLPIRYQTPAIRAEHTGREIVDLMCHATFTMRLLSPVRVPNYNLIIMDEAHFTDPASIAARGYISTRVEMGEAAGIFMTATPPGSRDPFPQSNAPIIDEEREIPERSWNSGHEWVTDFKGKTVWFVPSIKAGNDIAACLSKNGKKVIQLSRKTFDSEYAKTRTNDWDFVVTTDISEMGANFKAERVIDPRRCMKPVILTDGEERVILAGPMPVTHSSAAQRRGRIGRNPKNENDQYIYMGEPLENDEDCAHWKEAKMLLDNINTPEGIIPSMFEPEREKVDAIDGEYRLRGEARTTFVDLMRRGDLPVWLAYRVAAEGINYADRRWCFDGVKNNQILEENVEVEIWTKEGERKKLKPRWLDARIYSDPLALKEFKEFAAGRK
Sequence of Nonstructural protein 3 (A0A024AXB9 whole entry): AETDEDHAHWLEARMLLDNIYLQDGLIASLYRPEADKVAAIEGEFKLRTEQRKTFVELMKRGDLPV

For the compound `Cc1cc2c(F)c(Oc3ncnn4cc(OC[C@@H](C)O)c(C)c34)ccc2[nH]1` [BRIVANIB], in the series on dengue virus type 2 [1], the IC50 stood at 2.5 µM. Consider `COc1cc([C@H]2Oc3cc([C@H]4Oc5cc(O)cc(O)c5C(=O)[C@@H]4O)ccc3O[C@@H]2CO)ccc1O` [SILYBIN A], for which the IC50 in the series with dengue virus type 3 [2] worked out at 18.5 µM. In the case of `CC1(C)Cc2sc(NC(=O)Cc3ccc(S(N)(=O)=O)cc3)c(C#N)c2CN1CC1CCCCC1`, the EC50 with dengue virus type 2 [3] worked out at 0.023 µM.

Consider `O=c1c(O)c(-c2cc(O)c(O)c(O)c2)oc2cc(O)cc(O)c12` [MYRICETIN], for which it took 8.46 µM to reach half-maximal inhibition against Genome polyprotein [4] (IC50). For the compound `COc1ccc2[nH]cc(CCNC(C)=O)c2c1` [MELATONIN], in the series with dengue virus type 2 [5], the half-maximal inhibitory concentration (IC50) was found to be 135 µM. For the same compound, the CC50 at 24 h in series [6] is 3170 µM. Regarding `O=C(CCCCCCCCc1ccc(O)cc1)c1c(O)cc(O)cc1O`, inhibition against Genome polyprotein [7] was half-maximal at 7.55 µM (IC50). As for `COc1cc(NC(C(=O)N2CCc3ccc(OC(F)(F)F)cc32)c2ccc(Cl)cc2)cc(OCCCC(=O)O)c1` (stereo not given), the concentration for a half-maximal effect (EC50) in the series on dengue virus type 2 [8] is at most 0.004 µM; in the series on dengue virus type 1, at most 0.001 µM; in the series on dengue virus type 4 [10] it was at most 0.006 µM; in the series with dengue virus type 3 [11], at most 0.001 µM. The Activity in the series on dengue virus type 2 [9] worked out at 90%. For `O=C1NCc2ccc(Nc3ccnc4ccc(Br)cc34)cc21`, the cytotoxic concentration (CC50) at 48 h in series [12] was above 10 µM. For the same compound, the half-maximal effective concentration (EC50) with dengue virus type 2 [13] was found to be 3.6 µM.

As to `COc1cc(/C=C(\C#N)C(=O)c2ccc(O)c(O)c2)cc(I)c1O`, in the series with dengue virus type 2 [14], the concentration giving a half-maximal response (EC50) was determined as 3 µM. With `O=c1cc(-c2ccccc2)oc2cc(O)c(O)c(O)c12` [BAICALEIN], the IC50 in the series on dengue virus type 3 [2] came out at 17.2 µM. `Cc1ccc(O)c(NC(=O)CCc2ccccc2)c1`: the IC50 in the series on dengue virus type 2 [15] was found to be 1 µM. For `CCCCCOc1ccc(-c2cc(-c3ccc(C(=O)N[C@H]4C[C@@H](O)[C@@H](O)NC(=O)[C@@H]5[C@@H](O)[C@@H](C)CN5C(=O)[C@H]([C@H](O)CC(N)=O)NC(=O)[C@H]([C@H](O)[C@@H](O)c5ccc(O)c(OS(=O)(=O)O)c5)NC(=O)[C@@H]5C[C@@H](O)CN5C(=O)[C@H]([C@@H](C)O)NC4=O)cc3)no2)cc1` [MICAFUNGIN] (X1-[Orn(4R-OH,5R-OH)]T[Hyp][hTyr(3S-OH,4S-OH,3'-OSO3H)][Gln(3R-OH)][Pro(3S-OH,4S-Me)]; lactam 1-C), the IC50 with dengue virus type 2 [16] was 10.2 µM. Regarding `Fc1cc2cn[nH]c2cc1Nc1ccnc2ccc(Br)cc12`, the 50% cytotoxic concentration (CC50) at 48 h in series [12] is above 10 µM. Further, in the series on dengue virus type 2 [13], the concentration for a half-maximal effect (EC50) is 2.3 µM. For the compound `CC(C)(C)[Si](C)(C)Oc1ccc([C@H]2N(Nc3ccc([N+](=O)[O-])cc3)C(=O)[C@@H]3Cc4ccccc4N32)cc1`, in the series on dengue virus type 2 [8], the EC50 is 4.79 µM. In the case of `Cc1ccc(C(=O)Nc2ccc(S(=O)(=O)O)c3cc(S(=O)(=O)O)cc(S(=O)(=O)O)c23)cc1NC(=O)c1cccc(NC(=O)Nc2cccc(C(=O)Nc3cc(C(=O)Nc4ccc(S(=O)(=O)O)c5cc(S(=O)(=O)O)cc(S(=O)(=O)O)c45)ccc3C)c2)c1` [SURAMIN HEXASODIUM], the EC50 with dengue virus type 2 [14] was determined as 0.35 µM.

On to `C#COc1ccc(-c2cc(=O)c3c(O)cc(O)cc3o2)cc1`, for which the half-maximal effective concentration (EC50) with dengue virus type 2 [17] is 7.81 µM. Regarding `O=[N+]([O-])c1ccc(Nc2ccc3[nH]ncc3c2)nc1N1CCNCC1`, the 50% inhibitory concentration (IC50) amounted to 7.1 µM in the series with dengue virus type 4 [18] and 1.5 µM on Nonstructural protein 3.
